Patent US20190252042A1, “INDENTIFICATION AND ANTIBIOTIC CHARACTERIZATION OF PATHOGENS IN METAGENOMIC SAMPLE” (BIOMÉRIEUX, priority 2016, published 2019)

Assays:
E aerogenes = experiment: Antibiotic Susceptibility Testing (AST) profile by classical microbiology, BAL sample 1; type: cell-based; conditions: positive BAL metagenomic sample 1, pathogen E aerogenes
From the text: Three validation studies of the metagenomic analysis according to the invention have been done. The first validation study relies on in silico simulated metagenomes (validation study 1), the second validation study is a set of 3 positive miniBAL metagenomic samples for which only the culture identification is available (validation study 2), and the third validation study is a set 2 positive BAL metagenomic samples with identification and AST profiles available (validation study 3). For all the evaluation, Kraken is used for taxonomic binning and ARD binning (steps 22, 24) and IDBA-UD is used for assembly (step 28).
In Table 3, one notes that both pipelines give very similar results and results coherent with classical microbiology, at least for identification results. Both pipelines give similar results, probably because the ARD retrieved are present in the reference sequences of the 2 pathogens, ie. AmpC must be present in the reference sequences of E. aerogenes, and ANT(9)-1A in the reference sequences of S aureus.

S aureus = experiment: Antibiotic Susceptibility Testing (AST) profile by classical microbiology, BAL sample 2; type: cell-based; conditions: positive BAL metagenomic sample 2, pathogen S aureus

Row | Molecule | AST profile (E aerogenes) | AST profile (S aureus)
1 | CC1(C)S[C@@H]2[C@H](NC(=O)[C@H](N)c3ccc(O)cc3)C(=O)N2[C@H]1C(=O)O [amoxiciline] | resistance: amoxiciline, clavunalate | 
2 | CO/N=C(\C(=O)N[C@@H]1C(=O)N2C(C(=O)O)=C(COC(N)=O)CS[C@H]12)c1ccco1 [cefuroxime] | intermediate resistance: cefuroxime | 
3 | O=C(O)[C@H]1/C(=C/CO)O[C@@H]2CC(=O)N21 [clavunalate] | resistance: amoxiciline, clavunalate | 
4 | peniciline |  | resistance: peniciline, clindamycine
